Measurements taken from patent US7863446B2, “Heterocycles” (Orchid Research Laboratories Limited, priority 2006, dated 2011).

How the values were obtained:
[1] = system: NCI-H460; assay: Anti-cancer screen (MTT), NCI-H460; type: cell-based; settings: Homo sapiens, NCI-H460, 48 hours
Description: (§1) Experimental drugs are screened for anti-cancer activity in three cell lines for their GI50, TG1 and LC50 values (using 5 concentrations for each compound). The cell lines are maintained in DMEM containing 10% fetal bovine serum. 96 well microtiter plates are inoculated with cells in […] for 24 hours at 37° C., 5% CO2, 95% air and 100% relative humidity. 5000 HCT116 cells/well, 5000 NCIH460 cells/well, 10000 U251 cells/well and 5000 MDAMB231 cells/well are plated. A separate plate with these cell lines is also inoculated to determine cell viability before the addition of the compounds (T0).
(§2) Addition of Experimental Drugs
(§3) Following 24-hour incubation, experimental drugs are added to the 96 well plates. Each plate contains one of the above cell lines and the following in triplicate: 5 different concentrations (0.01, 0.1, 1, 10 and 100 μM) of 4 different compounds, appropriate dilutions of a cytotoxic standard and control (untreated) wells. Compounds are dissolved in dimethylsulfoxide (DMSO) to make 20 mM stock solutions, on the day of drug addition and frozen at −20° C. Serial dilutions of these 20 mM stock solutions are made in complete growth medium such that 100 μL of these drug solutions in medium, of final concentrations equaling 0.01, 0.1, 1, 10 and 100 μM can be added to the cells in triplicate. Standard drugs whose anti-cancer activity has been well documented and which are regularly used are doxorubicin and SAHA.
(§4) Cells are incubated with compounds for 48 hours followed by the addition of 10 μL 3-(4,5-Dimethyl-2-thiazolyl)-2,5-diphenyl-2H-tetrazolium (MTT) solution per well and a subsequent incubation at 37° C., 5% CO2, 95% air and 100% relative humidity, protected from light. After 4 hours, well contents are aspirated carefully followed by addition of 150 μL DMSO per well. Plates are agitated to ensure solution of the formazan crystals in DMSO and absorbance read at 570 nm.
(§5) Calculation of GI50, TGI and LC50
(§6) Percent growth is calculated for each compound's concentration relative to the control and zero measurement wells (T0; viability right before compound addition).
(§7) If a test well's O.D. value is greater than the T0 measurement for that cell line % Growth=(test−zero)/(control−zero)×100
(§8) If a test well's O.D. value is lower than the T0 measurement for that cell line, then % Growth=(test−zero)/zero×100 Plotting % growth versus experimental drug concentration, GI50 is the concentration required to decrease % growth by 50%; TGI is the concentration required to decrease % growth by 100% and LC50 is the concentration required to decrease % growth by 150%.

[2] = system: Male wistar rats; assay: Carrageenan induced paw edema test in rat; type: in vivo; settings: oral, 3 hours after carrageenan
Description: Carrageenan Induced Paw Edema Test in Rat
The carrageenan paw edema test was performed as described by Winter et al (Proc. Soc. Exp. Biol. Med, 111, 544, 1962). Male wistar rats were selected with body weights equivalent within each group. The rats were fasted for 18 hours with free access to water. The rats were dosed orally with the test compound suspended in the vehicle containing 0.25% carboxymethylcellulose and 0.5% Tween 80. The control rats were administered with vehicle alone. After an hour, the rats were injected with 0.1 ml of 1% Carrageenan solution in 0.9% saline into the sub-plantar surface of the right hind paw. Paw volume was measured using digital plethysmograph before and after 3 hours of carrageenan injection. The average of foot swelling in drug treated animals was compared with that of the control animals. Anti-inflammatory activity was expressed as the percentage inhibition of edema compared with control group [Arzneim-Forsch/Drug Res., 43 (I), 1, 44-50, 1993; Representative results of edema inhibition are shown in the Table VI.

[3] = system: IL-6; assay: In vitro measurement of IL-6 in human PBMC (LPS stimulated); type: cell-based
Summary of the method: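 Human PBMC (0.5 million/well) pre-incubated with compound 15 min at 37 °C, then stimulated with E. coli LPS (1 μg/ml) for 18 h at 37 °C, 5% CO2. IL-6 in culture medium quantified by ELISA.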

[4] = system: HCT-116; assay: Anti-cancer screen (MTT), HCT-116; type: cell-based; settings: Homo sapiens, HCT-116, 48 hours
Description: as §1, §2, §3, §4, §5, §6, §7, §8

[5] = system: DU-145; assay: Anti-cancer screen (MTT), DU-145; type: cell-based; settings: Homo sapiens, DU-145, 48 hours

GI50 [1]: 1.65 µM | GI50 [4]: 2 µM | GI50 [5]: 1.93 µM
SMILES: CNS(=O)(=O)c1ccc(-c2c(Cl)nc(C(F)(F)F)nc2-c2ccc(S(C)(=O)=O)cc2)cc1 [Example 4, 4-{4-Chloro-6-[4-(methylsulfonyl)phenyl]-2-(trifluoromethyl)pyrimidin-5-yl}-N-methylbenzenesulfonamide]
Inhibition of edema (%) at 5 mg/kg [2]: 17.12% | inhibition at 1 µM ([3]; 1 μM, read-out: IL-6 Inhibition (%) Conc. (1 μM)): 27.2% | inhibition at 10 µM ([3]; 10 μM, read-out: IL-6 Inhibition (%) Conc. (10 μM)): 100%
